{"source": "paper PMC8606745", "about": "(Frontiers in Microbiology, 2021)", "key": {"[1]": {"test_system": "X. fastidiosa subsp. fastidiosa IVIA 5387.2"}, "[2]": {"test_system": "X. fastidiosa subsp. fastidiosa IVIA 5387.2", "settings": "for Bimax (maximum biofilm inhibition): 50 µM"}, "[3]": {"test_system": "X. fastidiosa subsp. fastidiosa IVIA 5387.2", "format": "cell-based, Xylella fastidiosa"}, "[4]": {"test_system": "X. fastidiosa subsp. fastidiosa IVIA 5387.2", "format": "cell-based, Xylella fastidiosa", "remark": "listed apart in the source"}, "[5]": {"test_system": "X. fastidiosa subsp. fastidiosa IVIA 5770", "format": "cell-based, Xylella fastidiosa", "settings": "50 μM; strain IVIA 5770; OD595 crystal violet, 28°C, 5 days; three replicates of 10 wells ± confidence interval; listed as NAC"}, "[6]": {"test_system": "X. fastidiosa subsp. multiplex IVIA 5901.2", "format": "cell-based, Xylella fastidiosa", "settings": "50 μM; strain IVIA 5901.2; OD595 crystal violet, 28°C, 5 days; three replicates of 10 wells ± confidence interval; listed as NAC"}, "[7]": {"test_system": "X. fastidiosa subsp. pauca DD1", "format": "cell-based, Xylella fastidiosa", "settings": "50 μM; strain DD1; OD595 crystal violet, 28°C, 5 days; three replicates of 10 wells ± confidence interval; listed as NAC"}, "[8]": {"test_system": "X. fastidiosa subsp. fastidiosa Temecula (ATCC 700964)", "format": "cell-based, Xylella fastidiosa", "settings": "50 μM; strain Temecula; OD595 crystal violet, 28°C, 5 days; three replicates of 10 wells ± confidence interval; listed as NAC"}, "[9]": {"test_system": "X. fastidiosa subsp. multiplex CFBP 8173", "format": "cell-based, Xylella fastidiosa", "settings": "50 μM; strain CFBP 8173; OD595 crystal violet, 28°C, 5 days; three replicates of 10 wells ± confidence interval; listed as NAC"}, "Gram-negative bacteria [10]": {"test_system": "Gram-negative bacteria", "settings": "cited from earlier work"}, "Gram-negative bacteria [11]": {"test_system": "Gram-negative bacteria", "settings": "cited from earlier work", "remark": "listed apart in the source"}, "[12]": {"test_system": "several X. fastidiosa strains", "settings": "12.5 μM; cited from earlier work"}}, "note": "Where “and” joins values, the source holds several entries; their conditions need not be identical. Identical values can stand only once. Like-named read-outs stand apart in the source and are kept apart here. Square brackets hold non-standard residues; d marks the D form. Peptide text beside a SMILES is read from it. * marks the point of attachment. Hexanoyl = CCCCCC(=O)*", "data": [{"compound": "CC[C@H](C)[C@H](N)C(=O)N[C@@H](CC(C)C)C(=O)N1CCC[C@H]1C(=O)N[C@H](Cc1ccccc1)C(=O)N[C@@H](CCCCN)C(=O)N[C@H](Cc1ccccc1)C(=O)N1CCC[C@H]1C(=O)N[C@H](Cc1ccccc1)C(=O)N[C@H](Cc1ccccc1)C(=O)N1CCC[C@H]1C(=O)N[C@H](Cc1ccccc1)C(=O)N[C@@H](CCCNC(=N)N)C(=O)N[C@@H](CCCNC(=N)N)C(N)=O", "note": "[BP525] (H-ILP[dF]K[dF]P[dF][dF]P[dF]RR-NH2)", "values": [{"measurement": "Bactericidal activity: Reduction in viability (Log N0/N)", "setting": "[1]", "value": "0.74 ± 0.06", "unit": "Log N0/N"}, {"measurement": "ED50 (median effective dose, biofilm inhibition)", "setting": "[2]", "value": "4.4 ± 1.3", "unit": "µM"}, {"measurement": "Bimax (maximum biofilm inhibition)", "setting": "[2]", "value": 85.8, "unit": "%"}, {"measurement": "Biofilm formation Level (antibiofilm activity)", "setting": "[3]", "value": "High (key: High: high antibiofilm activity (ratio of biofilm formation from 0.01 to 0.2); Moderate: moderate activity (ratio from 0.29 to 0.47); Low: low activity (ratio from 0.72 to 0.77))"}, {"measurement": "Biofilm formation Ratio (treatment/NTC)", "setting": "[3]", "value": "0.18 ± 0.01"}, {"measurement": "Planktonic cells Ratio (treatment/NTC)", "setting": "[3]", "value": "1.83 ± 0.12"}]}, {"compound": "CCCCCC(=O)N[C@H](C(=O)N[C@@H](CC(C)C)C(=O)N1CCC[C@H]1C(=O)N[C@H](Cc1ccccc1)C(=O)N[C@@H](CCCCN)C(=O)N[C@H](Cc1ccccc1)C(=O)N1CCC[C@H]1C(=O)N[C@H](Cc1ccccc1)C(=O)N[C@H](Cc1ccccc1)C(=O)N1CCC[C@H]1C(=O)N[C@H](Cc1ccccc1)C(=O)N[C@@H](CCCNC(=N)N)C(=O)N[C@@H](CCCNC(=N)N)C(N)=O)[C@@H](C)CC", "note": "[BP527] (Hexanoyl-ILP[dF]K[dF]P[dF][dF]P[dF]RR-NH2)", "values": [{"measurement": "Bactericidal activity: Reduction in viability (Log N0/N)", "setting": "[1]; 50 µM", "value": "0.49 ± 0.04", "unit": "Log N0/N"}, {"measurement": "attached biofilm cells", "setting": "[4]", "value": 12.5, "unit": "%"}, {"measurement": "biofilm detached cells", "setting": "[4]", "value": 45.7, "unit": "%"}, {"measurement": "planktonic cells", "setting": "[4]", "value": 41.7, "unit": "%"}, {"measurement": "Hemolysis", "setting": "horse erythrocytes; 150 µM", "value": "62.2 ± 4.4", "unit": "%"}, {"measurement": "Hemolysis", "setting": "horse erythrocytes; 250 µM", "value": "73.6 ± 1.1", "unit": "%"}, {"measurement": "Hemolysis", "setting": "horse erythrocytes; 375 µM", "value": "100.0 ± 2.6", "unit": "%"}, {"measurement": "Biofilm formation Level (antibiofilm activity)", "setting": "[3]; 50 µM", "value": "High (key: High: high antibiofilm activity (ratio of biofilm formation from 0.01 to 0.2); Moderate: moderate activity (ratio from 0.29 to 0.47); Low: low activity (ratio from 0.72 to 0.77))"}, {"measurement": "Biofilm formation Ratio (treatment/NTC)", "setting": "[3]; 50 µM", "value": "0.18 ± 0.02"}, {"measurement": "Planktonic cells Ratio (treatment/NTC)", "setting": "[3]; 50 µM", "value": "0.58 ± 0.12"}]}, {"compound": "CC(=O)N[C@@H](CS)C(=O)O", "note": "[N-Acetyl-L-cysteine, N-acetyl-L-cysteine]", "values": [{"measurement": "Biofilm formation (Ratio T/NTC)", "setting": "[5]", "value": 0.97}, {"measurement": "Bactericidal activity: Level", "setting": "[1]; 50 µM, class by Duncan's test groups", "value": "Very low (very low activity with less than 0.3 log)"}, {"measurement": "Bactericidal activity: Reduction in viability (Log N0/N)", "setting": "[1]; 50 µM, contact test 3 h at room temperature in SCP buffer, v-qPCR with PMAxx, N0 = 10^7 CFU/mL non-treated control, mean of three replicates ± confidence interval (α=0.05)", "value": "0.12 ± 0.01", "unit": "Log N0/N"}, {"measurement": "Biofilm formation (Ratio T/NTC)", "setting": "[6]", "value": "1.00 ± 0.04", "unit": "days"}, {"measurement": "Biofilm formation (Ratio T/NTC)", "setting": "[7]", "value": "0.42 and 0.42 ± 0.05 a"}, {"measurement": "Biofilm formation (Ratio T/NTC)", "setting": "[8]", "value": "0.94 ± 0.02", "unit": "c"}, {"measurement": "Biofilm formation (Ratio T/NTC)", "setting": "[9]", "value": 0.99}, {"measurement": "Hemolysis", "setting": "horse erythrocytes; 150 µM", "value": "0.5 ± 0.9", "unit": "%"}, {"measurement": "Hemolysis", "setting": "horse erythrocytes; 250 µM", "value": "0.7 ± 1.1", "unit": "%"}, {"measurement": "Hemolysis", "setting": "horse erythrocytes; 375 µM", "value": "1 ± 2", "unit": "%"}, {"measurement": "Biofilm formation Level (antibiofilm activity)", "setting": "[3]; 50 µM", "value": "Low (low activity (ratio from 0.72 to 0.77))"}, {"measurement": "Planktonic cells Ratio (treatment/NTC)", "setting": "[3]; 50 µM, OD600 treated / non-treated, PD3, 96-well, 28°C, 5 days, 120 rpm, three replicates of 10 wells ± confidence interval (α=0.05)", "value": "1.71 ± 0.03"}, {"measurement": "Biofilm formation Ratio (treatment/NTC)", "setting": "[3]; 50 µM, crystal violet OD595 treated / non-treated, PD3, 96-well, 28°C, 5 days, 120 rpm, three replicates of 10 wells ± confidence interval (α=0.05)", "value": "0.72 ± 0.01"}, {"measurement": "Biofilm formation (Ratio T/NTC)", "setting": "[3]; 50 μM, strain IVIA 5387.2, OD595 crystal violet, 28°C, 5 days, three replicates of 10 wells ± confidence interval, listed as NAC", "value": "0.72 and 0.72 ± 0.01 b"}]}, {"compound": "CC[C@H](C)[C@H](NC(=O)[C@H](CCCNC(=N)N)NC(=O)[C@H](Cc1c[nH]c2ccccc12)NC(=O)[C@H](CCC(N)=O)NC(=O)[C@@H](N)C(C)C)C(=O)N[C@@H](CCCNC(=N)N)C(=O)N[C@H](C(=O)N[C@@H](CCCNC(=N)N)C(=O)N[C@H](C(=O)N[C@H](C(=O)N[C@@H](CCCCN)C(=O)N[C@@H](CCCCN)C(N)=O)[C@@H](C)CC)C(C)C)C(C)C", "note": "[Peptide 1026] (H-VQWRIRVRVIKK-NH2)", "values": [{"measurement": "Bactericidal activity: Reduction in viability (Log N0/N)", "setting": "[1]", "value": "1.03 ± 0.07", "unit": "Log N0/N"}, {"measurement": "attached biofilm cells", "setting": "[4]", "value": 0.7, "unit": "%"}, {"measurement": "biofilm detached cells", "setting": "[4]", "value": 19.8, "unit": "%"}, {"measurement": "planktonic cells", "setting": "[4]", "value": 79.5, "unit": "%"}, {"measurement": "Biofilm formation Level (antibiofilm activity)", "setting": "[3]", "value": "High (key: High: high antibiofilm activity (ratio of biofilm formation from 0.01 to 0.2); Moderate: moderate activity (ratio from 0.29 to 0.47); Low: low activity (ratio from 0.72 to 0.77))"}, {"measurement": "Planktonic cells Ratio (treatment/NTC)", "setting": "[3]", "value": "2.10 ± 0.05"}]}, {"compound": "CC[C@H](C)[C@H](NC(=O)[C@H](CCCNC(=N)N)NC(=O)[C@H](Cc1ccccc1)NC(=O)[C@H](CCCNC(=N)N)NC(=O)[C@@H](N)CCCCN)C(=O)N[C@@H](CCCNC(=N)N)C(=O)N[C@H](C(=O)N[C@@H](CCCNC(=N)N)C(=O)N[C@H](C(N)=O)C(C)C)C(C)C", "note": "[Peptide 1037] (H-KRFRIRVRV-NH2)", "values": [{"measurement": "Bactericidal activity: Reduction in viability (Log N0/N)", "setting": "[1]", "value": "0.84 ± 0.09", "unit": "Log N0/N"}, {"measurement": "ED50 (median effective dose, biofilm inhibition)", "setting": "[2]", "value": "4.2 ± 2.4", "unit": "µM"}, {"measurement": "Biofilm formation Level (antibiofilm activity)", "setting": "[3]", "value": "High (key: High: high antibiofilm activity (ratio of biofilm formation from 0.01 to 0.2); Moderate: moderate activity (ratio from 0.29 to 0.47); Low: low activity (ratio from 0.72 to 0.77))"}, {"measurement": "Biofilm formation Ratio (treatment/NTC)", "setting": "[3]", "value": "0.15 ± 0.00"}, {"measurement": "Planktonic cells Ratio (treatment/NTC)", "setting": "[3]", "value": "1.67 ± 0.05"}]}, {"compound": "CC[C@H](C)[C@H](NC(=O)[C@H](CCCCN)NC(=O)[C@H](CCCCN)NC(=O)[C@H](CC(C)C)NC(=O)[C@@H](NC(=O)[C@H](CCCNC(=N)N)NC(=O)[C@@H](NC(=O)[C@H](CCCNC(=N)N)NC(=O)[C@@H](NC(=O)[C@H](CCCNC(=N)N)NC(=O)[C@H](Cc1ccccc1)NC(=O)[C@H](CC(C)C)NC(=O)[C@H](CCCNC(=N)N)NC(=O)[C@H](CCCNC(=N)N)NC(=O)[C@H](Cc1ccccc1)NC(=O)[C@@H](N)CCCNC(=N)N)[C@@H](C)CC)C(C)C)C(C)C)C(N)=O", "note": "[R-FV7-I16] (H-RFRRLFRIRVRVLKKI-NH2; N-terminus assumed)", "values": [{"measurement": "Bactericidal activity: Reduction in viability (Log N0/N)", "setting": "[1]; 50 µM", "value": "0.39 ± 0.01", "unit": "Log N0/N"}, {"measurement": "ED50 (median effective dose, biofilm inhibition)", "setting": "[2]", "value": "6.3 ± 3.7", "unit": "µM"}, {"measurement": "Bimax (maximum biofilm inhibition)", "setting": "[2]", "value": 90.6, "unit": "%"}, {"measurement": "Described activity: Antibacterial", "setting": "Gram-negative bacteria [10]", "value": "Ec, Pa, Se"}, {"measurement": "Described activity: Antibiofilm", "setting": "Gram-negative bacteria [11]", "value": "Ec, Pa"}, {"measurement": "Hemolysis", "setting": "horse erythrocytes; 150 µM", "value": "6.3 ± 0.3", "unit": "%"}, {"measurement": "Hemolysis", "setting": "horse erythrocytes; 250 µM", "value": "8.0 ± 1.3", "unit": "%"}, {"measurement": "Hemolysis", "setting": "horse erythrocytes; 375 µM", "value": "9.7 ± 0.6", "unit": "%"}, {"measurement": "Biofilm formation Level (antibiofilm activity)", "setting": "[3]; 50 µM", "value": "High (key: High: high antibiofilm activity (ratio of biofilm formation from 0.01 to 0.2); Moderate: moderate activity (ratio from 0.29 to 0.47); Low: low activity (ratio from 0.72 to 0.77))"}, {"measurement": "Biofilm formation Ratio (treatment/NTC)", "setting": "[3]; 50 µM", "value": "0.10 ± 0.01"}, {"measurement": "Planktonic cells Ratio (treatment/NTC)", "setting": "[3]; 50 µM", "value": "1.70 ± 0.12"}]}, {"compound": "BP178", "values": [{"measurement": "reduction in viability", "setting": "[12]", "value": "approximately 3.6 log"}]}]}
